Data on 15 molecules can be found in patent US9522888B2, “Substituted bicyclic compounds” (BRISTOL-MYERS SQUIBB COMPANY, priority 2014, dated 2016).

Experiment [1] addresses human S1P1 (Homo sapiens (Human), UniProt P21453). The experiment can be described thus: S1P1 binding assay (33P-S1P radioligand competition, CHO cell membranes). The following applies: phosphate examples; read-out: S1P1 Binding. The method, boiled down:
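Radioligand is 33P-S1P, competing for membranes from human S1P1-expressing CHO cells. Membranes resuspended in 50 mM HEPES pH 7.5, 100 mM NaCl, 1 mM MgCl2, 2 mM EDTA.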
On the technique in general: Loss of bound radioactivity is the signal in a displacement assay; it reports binding, not function.

For experiment [2], the target named is S1P1 (membranes prepared from S1P1/CHO cells) (Homo sapiens (Human), UniProt P21453). The experiment can be described thus: Receptor [35S] GTPγS binding assay (S1P1 GTPγS). The class given is biochemical. The following applies: phosphate examples; read-out: S1P1 GTPγS. The method, boiled down: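 Agonist-stimulated [35S]GTPγS binding (0.2 nM final) to S1P1/CHO membranes, 3 μg protein/well, measured after 45 min at room temperature. Buffer contained 10 μM GDP, saponin and fatty-acid-free BSA at pH 7.5. Compounds tested as 11-point 3-fold series; bound label captured on filters, scintillation-counted, EC50 reported.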
Sequence of S1P1 (membranes prepared from S1P1/CHO cells) (P21453 whole entry): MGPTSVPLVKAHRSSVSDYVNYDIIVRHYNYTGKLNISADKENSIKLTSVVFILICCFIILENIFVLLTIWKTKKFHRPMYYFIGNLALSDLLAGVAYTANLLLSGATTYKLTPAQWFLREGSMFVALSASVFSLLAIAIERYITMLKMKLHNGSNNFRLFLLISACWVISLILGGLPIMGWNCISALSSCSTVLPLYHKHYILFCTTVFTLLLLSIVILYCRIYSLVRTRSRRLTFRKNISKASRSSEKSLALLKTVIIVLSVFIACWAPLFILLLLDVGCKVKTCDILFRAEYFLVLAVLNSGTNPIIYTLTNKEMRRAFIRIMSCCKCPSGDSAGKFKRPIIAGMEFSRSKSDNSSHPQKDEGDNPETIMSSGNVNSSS
(In general: GTPγS is a poorly hydrolysed GTP analogue; its binding reports G protein activation.)

Experiment [3] concerns the target S1P3 (membranes prepared from EDG3-Gal5-bla HEK293T cells) (Homo sapiens (Human), UniProt Q99500). Briefly: Receptor [35S] GTPγS binding assay (S1P3 GTPγS). The class given is biochemical. To be noted: phosphate examples; read-out: S1P3 GTPγS. The method, boiled down: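 Membranes (3 μg protein/well) from S1P1/CHO cells or EDG3-Gal5-bla HEK293T cells (S1P3) were incubated 45 min at room temperature with 0.2 nM final [35S]GTPγS in HEPES pH 7.5 buffer with 10 μM GDP, MgCl2 and saponin. Bound label counted after filtration; EC50 from 11-point, 3-fold dilutions.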

Experiment [4] addresses hS1P1/CHO cells (Homo sapiens (Human), UniProt P21453). Briefly: hS1P1 ERK phosphorylation (S1P1 pERK). The following applies: phosphate examples. The class given is cell-based. The method, boiled down: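 Agonism read as ERK phosphorylation (SureFire pERK) in hS1P1/CHO lysates, normalised to the maximal effect of 10 μM S1P. Cells were held 2 h in serum-free medium, then treated with compound for 7 min at 37° C. in HBSS/20 mM HEPES.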

Sequence of S1P3 (membranes prepared from EDG3-Gal5-bla HEK293T cells) (Q99500 whole entry): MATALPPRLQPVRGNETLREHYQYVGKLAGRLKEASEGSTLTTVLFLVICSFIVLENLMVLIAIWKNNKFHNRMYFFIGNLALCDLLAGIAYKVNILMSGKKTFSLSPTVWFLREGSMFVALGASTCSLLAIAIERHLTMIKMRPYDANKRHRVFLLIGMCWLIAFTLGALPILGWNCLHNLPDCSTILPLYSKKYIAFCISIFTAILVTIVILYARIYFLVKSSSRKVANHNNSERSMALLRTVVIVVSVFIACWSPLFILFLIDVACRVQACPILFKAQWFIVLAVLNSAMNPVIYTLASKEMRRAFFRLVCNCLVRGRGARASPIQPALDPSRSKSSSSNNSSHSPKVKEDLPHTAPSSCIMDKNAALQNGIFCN
Sequence of human S1P1 (P21453 whole entry): as the sequence (P21453 whole entry) above
Sequence of hS1P1/CHO cells (P21453 whole entry): as above

With `CCC/C=C\CO[C@@H]1CCc2cc([C@H]3CC[C@](N)(COP(=O)(O)O)C3)ccc2C1` [compound 438], the IC50 in experiment [1] is < 10 nM. Besides, the EC50 in experiment [2] was 10 to 100 nM; in experiment [3], > 625 nM; in experiment [4], < 10 nM.

For the molecule `CCCCCC[C@H]1Cc2ccc([C@H]3CC[C@](N)(COP(=O)(O)O)C3)cc2CO1` [compound 426], the IC50 in experiment [1] lay within 10 to 100 nM. The values for the EC50 in experiment [2], in experiment [3] and in experiment [4] were < 10 nM, > 625 nM and < 10 nM, respectively.

On to `Cc1cccc(OC[C@@H]2CCc3cc([C@H]4CC[C@](N)(COP(=O)(O)O)C4)ccc3C2)c1` [compound 470], for which the IC50 in experiment [1] was in the range of 100 to 1000 nM. For the same molecule, the EC50 is 10 to 100 nM in experiment [2], > 625 nM in experiment [3] and < 10 nM in experiment [4].

With `CC(C)(C)CCSC[C@@H]1CCc2cc([C@H]3CC[C@](N)(COP(=O)(O)O)C3)ccc2C1` [compound 519], the IC50 in experiment [1] was < 10 nM. Moreover, the values for the EC50 in experiment [2], in experiment [3] and in experiment [4] were < 10 nM, > 625 nM and < 10 nM, respectively.

For the molecule `N[C@]1(COP(=O)(O)O)CC[C@H](c2ccc3c(c2)CC[C@@H](COCCCC(F)(F)F)C3)C1` [compound 451], the IC50 in experiment [1] was < 10 nM. For the same molecule, the EC50 in experiment [2] was < 10 nM; in experiment [3], > 625 nM; in experiment [4], 10 to 100 nM.

On to `CC/C=C/CC[C@@H]1CCc2cc([C@H]3CC[C@](N)(COP(=O)(O)O)C3)ccc2C1` [compound 650], for which, in experiment [1], the IC50 fell in the range of 10 to 100 nM. Further, the EC50 in experiment [2] is 100 to 1000 nM; in experiment [3], > 625 nM; in experiment [4], 10 to 100 nM.

`COc1ccc(OC[C@@H]2CCc3cc([C@H]4CC[C@](N)(COP(=O)(O)O)C4)ccc3C2)c(F)c1F` [compound 494]: in experiment [1], the IC50 fell in the range of 10 to 100 nM. Besides, the results for the EC50 in experiment [2], in experiment [3] and in experiment [4] were 10 to 100 nM, > 625 nM and 10 to 100 nM, respectively.

As for `CC(C)c1cccc(OC[C@@H]2CCc3cc([C@H]4CC[C@](N)(COP(=O)(O)O)C4)ccc3C2)c1` [compound 478], the IC50 in experiment [1] lay within 10 to 100 nM. For the same molecule, the EC50 was 10 to 100 nM in experiment [2], > 625 nM in experiment [3] and 10 to 100 nM in experiment [4].

Regarding `CN(C)C(=O)c1cccc(OC[C@@H]2CCc3cc([C@H]4CC[C@](N)(COP(=O)(O)O)C4)ccc3C2)c1` [compound 495], the IC50 in experiment [1] lay within 10 to 100 nM. The EC50 is 10 to 100 nM in experiment [2], > 625 nM in experiment [3] and < 10 nM in experiment [4].

For the molecule `C/C=C\CCC[C@@H]1CCc2cc([C@H]3CC[C@](N)(COP(=O)(O)O)C3)ccc2C1` [compound 656], the IC50 in experiment [1] lay within 10 to 100 nM. Moreover, the EC50 in experiment [2] is 10 to 100 nM; in experiment [3], > 625 nM; in experiment [4] it was 10 to 100 nM.

As for `Cc1ccccc1SC[C@@H]1CCc2cc([C@H]3CC[C@](N)(COP(=O)(O)O)C3)ccc2C1` [compound 520], the IC50 in experiment [1] was 10 to 100 nM. Moreover, the values for the EC50 in experiment [2], in experiment [3] and in experiment [4] were 10 to 100 nM, > 625 nM and 10 to 100 nM, respectively.

As for `CC(C)CC/C=C/[C@@H]1CCc2cc([C@H]3CC[C@](N)(COP(=O)(O)O)C3)ccc2C1` [compound 645], the IC50 in experiment [1] lay in the range of 100 to 1000 nM. Further, the EC50 is 10 to 100 nM in experiment [2], > 625 nM in experiment [3] and 10 to 100 nM in experiment [4].

Regarding `COc1cccc(COC[C@H]2CCc3cc([C@H]4CC[C@](N)(COP(=O)(O)O)C4)ccc3C2)c1` [compound 481], the IC50 in experiment [1] is < 10 nM. The EC50 in experiment [2] was < 10 nM; in experiment [3], > 625 nM; in experiment [4] it was < 10 nM.

On to `CC(C)SCC[C@@H]1CCc2cc([C@H]3CC[C@](N)(COP(=O)(O)O)C3)ccc2C1` [compound 537], for which, in experiment [1], the IC50 was < 10 nM. In addition, the EC50 is < 10 nM in experiment [2], > 625 nM in experiment [3] and < 10 nM in experiment [4].

Consider `CCCCCC[C@@H]1COc2cc([C@@H]3CC[C@](N)(COP(=O)(O)O)C3)ccc2C1` [compound 423], for which, in experiment [1], the IC50 fell in the range of 100 to 1000 nM. Moreover, the values for the EC50 in experiment [2], in experiment [3] and in experiment [4] were 100 to 1000 nM, > 625 nM and 10 to 100 nM, respectively.
